Data set [1] in a line: Haematological parameters after nebulization. The class given is in vivo, cynomolgus macaques. As to conditions: noninfected animals, days 1, 2, 3, 6, 28 after nebulization. As to the method: (§1) Biochemical parameters in the plasma and cellular composition of the blood were evaluated immediately before treatment and 1, 2, 3, 6, and 28 days after nebulization of either saline or HRC4 peptide in non-infected and MeV-infected NHP, to search for early and late toxic effects of the aerosol delivery (Fig. 4). […] In both control and peptide group, few animals experienced transient increase of creatine kinase above physiological values[40] (Fig. 4a), which can be linked to intramuscular anesthesia, as described previously.

Data set [2] relates to MeV IC323-eGFP. Description: Viremia: GFP+ PBMC by flow cytometry. (In general: Flow cytometry measures light scatter and fluorescence of single cells or particles in a stream.)
Procedure: Whole blood was collected on EDTA, then transferred into BD vacutainer CPT tubes (after removal of anticoagulant solution from CPT tubes) and spun at 2500 g for 20 min. The PBMCs were collected and one-tenth were used to isolate RNA. […] Cells were acquired on a MACSQuant®10 flow cytometer (Miltenyi) and analyzed by FlowJo10.8 (Becton Dickinson) and Kaluza 2.1 (Beckman Coulter).
The next data set concerns Vero cells. Description: Cell toxicity assay (MTT). As to conditions: doses ranging from 0.5 nM to 4 µM, before and after nebulization, Vero-E6 cells. Format: cell-based. How it is done:
Vero cells were incubated at 37 °C in the presence or absence of the indicated peptides at indicated concentrations up to 5 μM HRC4 peptide as added into the media, and the cells were incubated a 37 °C. According to the manufacturer’s guidelines, the viability was determined after 24 h using the Vybrant MTT (3- (4, 5-dimethylthiazolyl-2) −2, 5-diphenyltetrazolium bromide) cell proliferation assay kit. TritonX-100 (1%) was used as a positive control. Absorbance was read at 540 nm using a Tecan M1000PRO microplate reader.

Data set [3] can be described thus: Biochemical parameters in plasma after nebulization. Format: in vivo, cynomolgus macaques. As to conditions: noninfected animals, days 1, 2, 3, 6, 28 after nebulization. How it is done:
as §1

Data set [4] concerns MeV IC323-eGFP. Description: Serial passaging of MeV in presence of peptide and sequencing for escape variants. To be noted: 1 µM peptide, Vero-hSLAM cells, 8 passages, sequencing of viral RNA.
In data set [5] the test system is MeV IC323-eGFP. Briefly: Haematological parameters during MeV infection. The class given is in vivo, Cynomolgus monkeys (Macaca fascicularis). How it is done:
Supplementary figure S6. Evolution of the hematological parameters during the MeV infection. Major PBMC populations in blood of cynomolgus macaques were followed using Sysmex XT2000i Vet automatic analyzer, after nebulization of either 3 ml of 0.9% NaCl (C) or […] of HRC4 peptide (P) and MeV infection. Transient lymphopenia is observed in the absence of peptide protection.
Lymphocytes concentration (K/uL)
Monocytes concentration (K/uL)

Consider 1 compound from article PMC9616412, “Nebulized fusion inhibitory peptide protects cynomolgus macaques from measles virus infection” (Nature Communications, 2022).

As to `CC[C@H](C)[C@H](NC(=O)[C@H](C)NC(=O)[C@H](CC(N)=O)NC(=O)CNC(=O)[C@H](CC(C)C)NC(=O)[C@H](CC(N)=O)NC(=O)[C@@H](NC(=O)CNC(=O)[C@@H](NC(=O)[C@H](CC(=O)O)NC(=O)[C@H](CC(C)C)NC(=O)[C@H](CCCNC(=N)N)NC(=O)[C@H](CCC(=O)O)NC(=O)[C@H](CC(C)C)NC(=O)[C@H](CO)NC(=O)[C@@H](NC(=O)[C@@H]1CCCN1C(=O)[C@@H]1CCCN1)[C@@H](C)CC)C(C)C)[C@@H](C)O)C(=O)N[C@@H](C)C(=O)N[C@@H](CCCCN)C(=O)N[C@@H](CC(C)C)C(=O)N[C@@H](CCC(=O)O)C(=O)N[C@@H](CC(=O)O)C(=O)N[C@@H](C)C(=O)N[C@@H](CCCCN)C(=O)N[C@@H](CCC(=O)O)C(=O)N[C@@H](CC(C)C)C(=O)N[C@@H](CC(C)C)C(=O)N[C@@H](CCC(=O)O)C(=O)N[C@@H](CO)C(=O)N[C@@H](CO)C(=O)N[C@@H](CC(=O)O)C(=O)N[C@@H](CCC(N)=O)C(=O)N[C@H](C(=O)N[C@@H](CC(C)C)C(=O)N[C@@H](CCCNC(=N)N)C(=O)NCC(=O)N[C@@H](CO)C(=O)NCC(=O)N[C@@H](CO)C(=O)NCC(=O)N[C@@H](CSC1CC(=O)N(CCCC(=O)NCCOCCOCCOCCOCCC(=O)NCCN(CCNC(=O)CCOCCOCCOCCOCCNC(=O)CCCN2C(=O)CC(SC[C@H](NC(=O)CNC(=O)[C@H](CO)NC(=O)CNC(=O)[C@H](CO)NC(=O)CNC(=O)[C@H](CCCNC(=N)N)NC(=O)[C@H](CC(C)C)NC(=O)[C@@H](NC(=O)[C@H](CCC(N)=O)NC(=O)[C@H](CC(=O)O)NC(=O)[C@H](CO)NC(=O)[C@H](CO)NC(=O)[C@H](CCC(=O)O)NC(=O)[C@H](CC(C)C)NC(=O)[C@H](CC(C)C)NC(=O)[C@H](CCC(=O)O)NC(=O)[C@H](CCCCN)NC(=O)[C@H](C)NC(=O)[C@H](CC(=O)O)NC(=O)[C@H](CCC(=O)O)NC(=O)[C@H](CC(C)C)NC(=O)[C@H](CCCCN)NC(=O)[C@H](C)NC(=O)[C@@H](NC(=O)[C@H](C)NC(=O)[C@H](CC(N)=O)NC(=O)CNC(=O)[C@H](CC(C)C)NC(=O)[C@H](CC(N)=O)NC(=O)[C@@H](NC(=O)CNC(=O)[C@@H](NC(=O)[C@H](CC(=O)O)NC(=O)[C@H](CC(C)C)NC(=O)[C@H](CCCNC(=N)N)NC(=O)[C@H](CCC(=O)O)NC(=O)[C@H](CC(C)C)NC(=O)[C@H](CO)NC(=O)[C@@H](NC(=O)[C@@H]3CCCN3C(=O)[C@@H]3CCCN3)[C@@H](C)CC)C(C)C)[C@@H](C)O)[C@@H](C)CC)[C@@H](C)CC)C(=O)O)C2=O)CCO[C@H]2CC[C@@]3(C)C(=CC[C@H]4[C@@H]5CC[C@H]([C@H](C)CCCC(C)C)[C@@]5(C)CC[C@@H]43)C2)C1=O)C(=O)O)[C@@H](C)CC` (some centres unmarked) [HRC4], the Hematological parameters result in data set [1] is on record as “within the physiological levels”. In the data set with MeV IC323-eGFP [2] (HRC4-treated animal P2 (co-housed with C3)), this compound came in with a Duration of viremia of 6 days. Besides, the “Infection of PBMCs by flow cytometry” value with MeV IC323-eGFP [2] (HRC4-treated animal P2, day 9 p.i.) was “low level”. Further, in the data set on Vero cells, the Cytotoxicity result was “No measurable cytotoxicity”. Also, the “Biochemical parameters in plasma” value in data set [3] is reported as “within the physiological levels”. Moreover, in the data set with MeV IC323-eGFP [4], the “Mutations in MeV F after serial passage in presence of peptide” value is “no mutations were identified”. Also, the Duration of leukopenia in the data set on MeV IC323-eGFP [5] (HRC4-treated animal P2) is 9-13 days p.i. The “Total white blood cell and lymphocyte counts” value in the data set on MeV IC323-eGFP [5] (day 6 following MeV infection, HRC4-treated macaques) is recorded as “remained stable”.
